Laboratory results: BigSolDB 2.1

For `O=C1c2ccccc2C(=O)N1O`, the solubility (mole fraction) (in 1,4-dioxane, 288.15 K) was 0.0181, the solubility (mole fraction) (in 1,4-dioxane, 293.15 K) was 0.0204 and the solubility (mole fraction) (in 1,4-dioxane, 298.15 K) was 0.0231. For the same molecule, the solubility (mole fraction) (in 1,4-dioxane, 303.15 K) was 0.0255, the solubility (mole fraction) (in 1,4-dioxane, 308.15 K) was 0.0286 and the solubility (mole fraction) (in 1,4-dioxane, 313.15 K) was 0.0319. It also gave a solubility (mole fraction) (in 1,4-dioxane, 318.15 K) of 0.0354, a solubility (mole fraction) (in 1,4-dioxane, 323.15 K) of 0.0393 and a solubility (mole fraction) (in 2-ethoxyethanol, 278.15 K) of 0.016. It also gave a solubility (mole fraction) (in 2-ethoxyethanol, 283.15 K) of 0.0182, a solubility (mole fraction) (in 2-ethoxyethanol, 288.15 K) of 0.0207 and a solubility (mole fraction) (in 2-ethoxyethanol, 293.15 K) of 0.0233. For the same molecule, the solubility (mole fraction) (in 2-ethoxyethanol, 298.15 K) was 0.026, the solubility (mole fraction) (in 2-ethoxyethanol, 303.15 K) was 0.0294 and the solubility (mole fraction) (in 2-ethoxyethanol, 308.15 K) was 0.0327. For the same molecule, the solubility (mole fraction) (in 2-ethoxyethanol, 313.15 K) was 0.0364, the solubility (mole fraction) (in 2-ethoxyethanol, 318.15 K) was 0.0404 and the solubility (mole fraction) (in 2-ethoxyethanol, 323.15 K) was 0.0447. It also gave a solubility (mole fraction) (in 2-methoxyethanol, 278.15 K) of 0.0254, a solubility (mole fraction) (in 2-methoxyethanol, 283.15 K) of 0.028 and a solubility (mole fraction) (in 2-methoxyethanol, 288.15 K) of 0.0311. The solubility (mole fraction) (in 2-methoxyethanol, 293.15 K) was 0.0346, the solubility (mole fraction) (in 2-methoxyethanol, 298.15 K) was 0.0381 and the solubility (mole fraction) (in 2-methoxyethanol, 303.15 K) was 0.0421. It also gave a solubility (mole fraction) (in 2-methoxyethanol, 308.15 K) of 0.0466, a solubility (mole fraction) (in 2-methoxyethanol, 313.15 K) of 0.051 and a solubility (mole fraction) (in 2-methoxyethanol, 318.15 K) of 0.056. For the same molecule, the solubility (mole fraction) (in 2-methoxyethanol, 323.15 K) was 0.062, the solubility (mole fraction) (in acetone, 278.15 K) was 0.00744 and the solubility (mole fraction) (in acetone, 283.15 K) was 0.00861. The solubility (mole fraction) (in acetone, 288.15 K) was 0.00981, the solubility (mole fraction) (in acetone, 293.15 K) was 0.0111 and the solubility (mole fraction) (in acetone, 298.15 K) was 0.0126. The solubility (mole fraction) (in acetone, 303.15 K) was 0.0144, the solubility (mole fraction) (in acetone, 308.15 K) was 0.0161 and the solubility (mole fraction) (in acetone, 313.15 K) was 0.0186. For the same molecule, the solubility (mole fraction) (in acetone, 318.15 K) was 0.0202, the solubility (mole fraction) (in acetone, 323.15 K) was 0.0222 and the solubility (mole fraction) (in acetonitrile, 278.15 K) was 0.00232. The solubility (mole fraction) (in acetonitrile, 283.15 K) was 0.00268, the solubility (mole fraction) (in acetonitrile, 288.15 K) was 0.00312 and the solubility (mole fraction) (in acetonitrile, 293.15 K) was 0.0036. The solubility (mole fraction) (in acetonitrile, 298.15 K) was 0.00414, the solubility (mole fraction) (in acetonitrile, 303.15 K) was 0.00476 and the solubility (mole fraction) (in acetonitrile, 308.15 K) was 0.00543. It also gave a solubility (mole fraction) (in acetonitrile, 313.15 K) of 0.00618, a solubility (mole fraction) (in acetonitrile, 318.15 K) of 0.00701 and a solubility (mole fraction) (in acetonitrile, 323.15 K) of 0.0079. It also gave a solubility (mole fraction) (in ethanol, 278.15 K) of 0.00307, a solubility (mole fraction) (in ethanol, 283.15 K) of 0.00366 and a solubility (mole fraction) (in ethanol, 288.15 K) of 0.00442. For the same molecule, the solubility (mole fraction) (in ethanol, 293.15 K) was 0.00526, the solubility (mole fraction) (in ethanol, 298.15 K) was 0.00614 and the solubility (mole fraction) (in ethanol, 303.15 K) was 0.00729. For the same molecule, the solubility (mole fraction) (in ethanol, 308.15 K) was 0.00855, the solubility (mole fraction) (in ethanol, 313.15 K) was 0.01 and the solubility (mole fraction) (in ethanol, 318.15 K) was 0.0117. The solubility (mole fraction) (in ethanol, 323.15 K) was 0.0138, the solubility (mole fraction) (in ethyl acetate, 278.15 K) was 0.00214 and the solubility (mole fraction) (in ethyl acetate, 283.15 K) was 0.00252. The solubility (mole fraction) (in ethyl acetate, 288.15 K) was 0.00301, the solubility (mole fraction) (in ethyl acetate, 293.15 K) was 0.00353 and the solubility (mole fraction) (in ethyl acetate, 298.15 K) was 0.00399. The solubility (mole fraction) (in ethyl acetate, 303.15 K) was 0.00465, the solubility (mole fraction) (in ethyl acetate, 308.15 K) was 0.00541 and the solubility (mole fraction) (in ethyl acetate, 313.15 K) was 0.0062. It also gave a solubility (mole fraction) (in ethyl acetate, 318.15 K) of 0.00705, a solubility (mole fraction) (in ethyl acetate, 323.15 K) of 0.00807 and a solubility (mole fraction) (in methanol, 278.15 K) of 0.00354. For the same molecule, the solubility (mole fraction) (in methanol, 283.15 K) was 0.00412, the solubility (mole fraction) (in methanol, 288.15 K) was 0.00484 and the solubility (mole fraction) (in methanol, 293.15 K) was 0.00566. The solubility (mole fraction) (in methanol, 298.15 K) was 0.00657, the solubility (mole fraction) (in methanol, 303.15 K) was 0.0078 and the solubility (mole fraction) (in methanol, 308.15 K) was 0.00903. It also gave a solubility (mole fraction) (in methanol, 313.15 K) of 0.0105, a solubility (mole fraction) (in methanol, 318.15 K) of 0.0123 and a solubility (mole fraction) (in methanol, 323.15 K) of 0.0143. For the same molecule, the solubility (mole fraction) (in methyl acetate, 278.15 K) was 0.00303, the solubility (mole fraction) (in methyl acetate, 283.15 K) was 0.00342 and the solubility (mole fraction) (in methyl acetate, 288.15 K) was 0.00394. For the same molecule, the solubility (mole fraction) (in methyl acetate, 293.15 K) was 0.00462, the solubility (mole fraction) (in methyl acetate, 298.15 K) was 0.00528 and the solubility (mole fraction) (in methyl acetate, 303.15 K) was 0.00618. For the same molecule, the solubility (mole fraction) (in methyl acetate, 308.15 K) was 0.00696, the solubility (mole fraction) (in methyl acetate, 313.15 K) was 0.00794 and the solubility (mole fraction) (in methyl acetate, 318.15 K) was 0.00908. For the same molecule, the solubility (mole fraction) (in methyl acetate, 323.15 K) was 0.0104, the solubility (mole fraction) (in n-propanol, 278.15 K) was 0.00214 and the solubility (mole fraction) (in n-propanol, 283.15 K) was 0.00259. For the same molecule, the solubility (mole fraction) (in n-propanol, 288.15 K) was 0.00321, the solubility (mole fraction) (in n-propanol, 293.15 K) was 0.00388 and the solubility (mole fraction) (in n-propanol, 298.15 K) was 0.00467. It also gave a solubility (mole fraction) (in n-propanol, 303.15 K) of 0.00568, a solubility (mole fraction) (in n-propanol, 308.15 K) of 0.00688 and a solubility (mole fraction) (in n-propanol, 313.15 K) of 0.00834. The solubility (mole fraction) (in n-propanol, 318.15 K) was 0.00992, the solubility (mole fraction) (in n-propanol, 323.15 K) was 0.0119 and the solubility (mole fraction) (in n-propyl acetate, 278.15 K) was 0.0017. For the same molecule, the solubility (mole fraction) (in n-propyl acetate, 283.15 K) was 0.00202, the solubility (mole fraction) (in n-propyl acetate, 288.15 K) was 0.00235 and the solubility (mole fraction) (in n-propyl acetate, 293.15 K) was 0.00281. For the same molecule, the solubility (mole fraction) (in n-propyl acetate, 298.15 K) was 0.00329, the solubility (mole fraction) (in n-propyl acetate, 303.15 K) was 0.00381 and the solubility (mole fraction) (in n-propyl acetate, 308.15 K) was 0.00442. For the same molecule, the solubility (mole fraction) (in n-propyl acetate, 313.15 K) was 0.00512, the solubility (mole fraction) (in n-propyl acetate, 318.15 K) was 0.00594 and the solubility (mole fraction) (in n-propyl acetate, 323.15 K) was 0.00679.
